The structures appear in SMILES notation. “Also recorded” adds a separate entry of the source.

One assay deals with sciatic nerve. The assay is described as follows: Sciatic nerve crush injury model. In kind it is in vivo, Sprague Dawley rats. The text has this:
The sciatic nerve crush model is a representative model of axonal repair and regeneration. The sciatic nerve is physically crushed with forceps at the mid-thigh; only the right leg is injured, the left leg serving as a control. The axons die from the crush point to their point of innervation. Functional loss of the axons is rapidly observed as the animals drag their right leg and the toes of the right leg no longer spread. Recovery is observed in approximately 28 days as the animals regain use of their right leg. More quantitative measurements of recovery include toe spread measurements between the digits 1 and 5 and digits 2 and 4, gait analysis and electrical conductivity from the toes to the injury site (see Example 161). Male Sprague Dawley rats were anaesthetized (halothane and buprenorphine) and the right hind leg was blunt dissected to expose the sciatic nerve at mid-thigh. The nerve was crushed twice for a total of 30 seconds using No.7 Dumont jeweller's forceps. The incision is sutured and the animals are allowed to recover for 28 days. Functional recovery was measured by gait, nerve conductance and toe spread measurements between digits 1 and 5 and digits 2 and 4.

For assay [1], the system named is SCG neurons. In words: Protection of SCG neurons from anti-NGF killing. In kind it is cell-based, Sprague Dawley rats. Particulars: Rattus norvegicus, Neuron; anti-NGF antibody, serum and NGF free 48 hours, Alamar Blue; +/−1 uM; read-out: IC(50), rescue from anti-NGF killing of SCG neurons. On the procedure: Neurotrophins are critical to the growth, development, and survival of small fiber neurons of the PNS. SCG neurons are neurons of the PNS that undergo apoptosis upon NGF withdrawal. In a typical experiment SCG neurons are cultured in the presence of NGF, which induces survival and neurite out-growth. After 5 days the NGF is removed by either the addition of anti-NGF polyclonal antibody (Sigma) or by repeated washings (4 times) with NGF free media, resulting in the apoptosis of up to 90% of the neurons after 48 hours, as measured by MTS staining.
After 4 days the cells were treated with anti-NGF antibody (Sigma). At this time compound was added and the cells were maintained serum and NGF free for 48 hours, at which time viability was assessed using Alamar Blue (Medicorp) staining.

The target of a further assay is CA II (Homo sapiens, UniProt P00918). The assay is described as follows: CA II inhibition. In kind it is biochemical. Particulars: read-out: IC(50), CA II inhibition. On the procedure:
CA II inhabition was measured using the protocol described by Pocker, Y.'Stone, J. Biochemistry 1967, 6, 668.

Assay [2] concerns SCG neurons. The assay is described as follows: cells. Particulars: Rattus norvegicus, Neuron; Taxol™ (50 ng/mL), viability 48 hours later, MTS; read-out: IC(50), protection of SCG neurons from Taxol killing. Format: cell-based, Sprague Dawley rats.
In another assay the test system is cortical neurons. The assay is described as follows: Neuroprotection of cortical neurons in the presence of beta-amyloid. Format: cell-based, Sprague Dawley rats. Particulars: 10 uM compound, 10 uM 25-35 amyloid beta peptide, 48 hour. On the procedure: Primary neuronal/glial cortical cultures were established from postnatal day 1 Sprague Dawley rats. Cerbral cortices were isolated and dissociated with 0.25% trypsin for 20 minutes at 37 degrees. The tissue was then triturated in PBS containing 0.1% bovine serum albumin and 0.2 mg/ml DNAse. Cells were plated in poly D-lysine coated 96 well plates at a density of 1e6 cells per mL. Cultures were maintained at 37 degrees in 5% C02/95% air for 2 weeks in Neurobasal (Gibco) supplemented with B27, glutamine, and penicillin/streptomycin. 5ng/mL AraC was added after 48 hours. After 2 weeks cells were exposed to 10 uM 25-35 amyloid beta peptide with and without 10 uM compound 76. After 2 days of treatment apoptotic cells were detected with Cy3-conjugated annexin V (Sigma).

As to `COc1cccc(-c2ccc(-c3cn4nc(S(N)(=O)=O)sc4n3)cc2)c1` [Compound 76, 6-(4-(3-methoxyphenyl)phenyl)imidazo[2,1-b]-1,3,4-thiadiazole-2-sulfonamide], the “functional recovery after sciatic nerve crush” value in the assay with sciatic nerve (1 and 10 mg/kg) is reported as “improved recovery”. In addition, the “recovery in toe spread area (inner toe spread)” value with sciatic nerve (versus vehicle control) is “induced increased recovery”. Besides, the values for the IC50 with SCG neurons [1], at CA II and in the assay with SCG neurons [2] were 5000 nM, 526 nM and 2000 nM, respectively. Besides, the “annexin V positive (apoptotic) cells” value with cortical neurons is recorded as “prevents the occurrence of annex in V stained cells; also recorded: prevented the appearance of annexinV positive cells”.

Values taken from patent US7772260B2, “Imidazo[2,1-b]-1,3,4-thiadiazole sulfonamides” (Aegera Therapeutics Inc., priority 2001, dated 2010).
